Test results reported in patent US20110112145A1, “Salts Of Methyl 2-((R))-(3-Chlorophenyl)((R)-1-((S)-2-(Methylamino)-3((R)-tetrahydro-2H-Pyran-3-YL)Propylcarbamoyl)Piperidin-3-YL)Methoxy)Ethylcarbamate” (priority 2008, published 2011).

How the values were obtained:
[1] = Oral bioavailability in Beagle dogs; assay type: in vivo, male Beagle dogs; conditions: Dog
Method: Oral pharmacokinetic data in male Beagle dogs was obtained for a solution formulation of Compound D and capsule formulations of Compound A-form I, Compound B-form I, and Compound C-form I. Compound D was administered by oral gavage as a clear, colorless solution in water containing 2% DMSO (final pH=3.5), which was filtered, using a 0.22 μm MILLEX-GV filter, prior to administration. The above noted Compounds A, B, and C were each administered at a dose of 5 mg/kg in gelatin capsules (1.37 mL). Blood (50 μL) was sampled at the following time intervals: 0, 20, 40, 60, 120, 180, 240, 360, 480, 600, and 1440 min.
(§1) The concentration of each compound was quantified by LC/MS/MS analysis of an aliquot (25 μL blood+25 μL water) of these samples and the overall blood exposure reported as the Dose-Normalized Area Under the Curve (DNAUC) from a concentration versus time plot and expressed in the units kilogram hours per liter (kg·h/L). All oral bioavailabilities were calculated by dividing the DNAUC from an oral segment by the DNAUC from an i.v. segment and multiplying by 100.

[2] = Oral bioavailability in Sprague-Dawley rats; assay type: in vivo, male Sprague-Dawley rats; conditions: for DNAUC (Dose-Normalized Area Under the Curve, blood) / Oral Bioavailability (%): Rat; for Oral Bioavailability (%): oral DNAUC / i.v. DNAUC x 100
Method: Oral pharmacokinetic data in male Sprague-Dawley rats was obtained for a solution formulation of Compound D and a suspension formulation of micronized Compound E. Compound D was administered by oral gavage as a clear, colorless solution in a formulation with 0.5% methylcellulose in water at a dose of 10 mg/kg (5 mL of dose solution per kg). Blood was sampled at the following time intervals: 0, 5, 15, 30, 60, 120, 180, 240, 360, 480, and 1440 min. Compound E was administered as a suspension by gastric bolus in a formulation with 1% methylcellulose in water at a dose of 5 mg/kg (10 mL of dose solution per kg). Blood (50 μL) was sampled at the following time intervals: 0, 20, 40, 60, 120, 180, 240, 360, 480, 720, 960, 1200, and 1440 min.
as §1

[3] = oral, gelatin capsule, 5 mg/kg, form I of each compound
[4] = oral, gelatin capsule, 5 mg/kg, form I of each compound, oral DNAUC / i.v. DNAUC x 100
[5] = gastric bolus, suspension of micronized compound in 1% methylcellulose in water, 5 mg/kg
[6] = oral gavage, solution in 0.5% methylcellulose in water, 10 mg/kg

With CN[C@H](CNC(=O)N1CCC[C@@H]([C@@H](OCCNC(=O)OC)c2cccc(Cl)c2)C1)C[C@H]1CCCOC1.CN[C@H](CNC(=O)N1CCC[C@@H]([C@@H](OCCNC(=O)OC)c2cccc(Cl)c2)C1)C[C@H]1CCCOC1.Cc1ccc(C(=O)O[C@@H](C(=O)O)[C@@H](OC(=O)c2ccc(C)cc2)C(=O)O)cc1 [Compound A] the “DNAUC (Dose-Normalized Area Under the Curve, blood)” value [1, 3] was 0.38 kg·h/L and the “Oral Bioavailability (%)” value [1, 4] was 35%.

In the case of CN[C@H](CNC(=O)N1CCC[C@@H]([C@@H](OCCNC(=O)OC)c2cccc(Cl)c2)C1)C[C@H]1CCCOC1.CN[C@H](CNC(=O)N1CCC[C@@H]([C@@H](OCCNC(=O)OC)c2cccc(Cl)c2)C1)C[C@H]1CCCOC1.O=C(O)c1cc2ccccc2c(Cc2c(O)c(C(=O)O)cc3ccccc23)c1O [Compound E, 2:1 pamoate salt of methyl 2-((R)-(3-chlorophenyl)((R)-1-((S)-2-(methylamino)-3-((R)-tetrahydro-2H-pyran-3-yl)propylcarbamoyl)piperidin-3-yl)methoxy)ethylcarbamate], the “DNAUC (Dose-Normalized Area Under the Curve, blood)” value [2, 5] is reported as 0.0067 kg·h/L, the “Oral Bioavailability (%)” value [2, 5] is reported as 5% and the “in vivo oral bioavailability” value ([2]; statement in the background section, species not given) is reported as “low”.

In the case of CN[C@H](CNC(=O)N1CCC[C@@H]([C@@H](OCCNC(=O)OC)c2cccc(Cl)c2)C1)C[C@H]1CCCOC1.O=C(O)/C=C/C(=O)O [Compound D, methyl 2-((R)-(3-chlorophenyl)((R)-1-((S)-2-(methylamino)-3-((R)-tetrahydro-2H-pyran-3-yl)propylcarbamoyl)piperidin-3-yl)methoxy)ethylcarbamate fumaric acid], the “DNAUC (Dose-Normalized Area Under the Curve, blood)” value ([1]; oral gavage, solution in water containing 2% DMSO (final pH=3.5), dose not given) is reported as 0.46 kg·h/L, the bioavailability ([1]; male, Beagle, whole blood, oral gavage, solution in water containing 2% DMSO (final pH=3.5), dose not given, oral DNAUC / i.v. DNAUC x 100) is reported as 43% and the “DNAUC (Dose-Normalized Area Under the Curve, blood)” value [2, 6] is reported as 0.048 kg·h/L. For the same compound, the “Oral Bioavailability (%)” value [2, 6] was 37%.

For CN[C@H](CNC(=O)N1CCC[C@@H]([C@@H](OCCNC(=O)OC)c2cccc(Cl)c2)C1)C[C@H]1CCCOC1.O=C(O)C(=O)O [Compound C], the “DNAUC (Dose-Normalized Area Under the Curve, blood)” value [1, 3] was 0.64 kg·h/L and the “Oral Bioavailability (%)” value [1, 4] was 59%.

With CC(=O)N[C@@H](Cc1ccccc1)C(=O)O.CN[C@H](CNC(=O)N1CCC[C@@H]([C@@H](OCCNC(=O)OC)c2cccc(Cl)c2)C1)C[C@H]1CCCOC1 [Compound B] the “DNAUC (Dose-Normalized Area Under the Curve, blood)” value [1, 3] was 0.40 kg·h/L and the “Oral Bioavailability (%)” value [1, 4] was 37%.
